Data as given in patent US20220187282A1, “CARDIOMYOCYTE PROLIFERATION” (The Council of the Queensland Institute of Medical Research, priority 2019, published 2022).
Read-outs that look alike come from different tables or passages of the source.

Columns and labels:
Type in all cases: biochemical
[1] = molecular target: kinases (Homo sapiens, UniProt O00443); conditions: PIK3C2A FRET-Adapta SP; Test Conc(μM):ATP Conc(μM) 1:25
[2] = molecular target: kinases (Homo sapiens, UniProt O14986); conditions: Test Conc(μM):ATP Conc(μM) 1:10
[3] = molecular target: kinases (Homo sapiens, UniProt O43781); conditions: DYRK3 FRET-Z-Lyte SP; ATP Conc(μM):Test Conc(μM) 1:5
[4] = molecular target: kinases (Homo sapiens, UniProt P07948); conditions: LYN A Hu Phos FRET-Z-Lyte SP; Test Conc(μM):ATP Conc(μM) 1:25
[5] = molecular target: kinases (Homo sapiens, UniProt P24723); conditions: PRKCH (PKC eta) Z-Lyte SP; Test Conc(μM):ATP Conc(μM) 1:25
[6] = molecular target: kinases (Homo sapiens, UniProt P27361); conditions: MAPK3 (ERK1) FRET-Z-Lyte SP; Test Conc(μM):ATP Conc(μM) 1:50
Chain of kinases (Homo sapiens, UniProt P27361) (P27361 whole entry): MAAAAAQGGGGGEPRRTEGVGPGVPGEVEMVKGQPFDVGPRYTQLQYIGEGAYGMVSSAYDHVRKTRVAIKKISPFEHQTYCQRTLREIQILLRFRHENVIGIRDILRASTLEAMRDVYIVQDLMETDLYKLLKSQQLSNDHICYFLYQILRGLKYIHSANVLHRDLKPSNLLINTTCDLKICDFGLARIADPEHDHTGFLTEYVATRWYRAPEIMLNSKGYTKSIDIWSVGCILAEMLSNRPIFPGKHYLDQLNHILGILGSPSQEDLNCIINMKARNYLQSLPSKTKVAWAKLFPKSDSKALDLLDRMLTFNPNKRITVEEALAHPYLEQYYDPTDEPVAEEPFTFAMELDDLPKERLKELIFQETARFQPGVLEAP

[7] = molecular target: kinases (Homo sapiens, UniProt P42685); conditions: FRK (PTK5) FRET-Z-Lyte SP; Test Conc(μM):ATP Conc(μM) 1:50
Chain of kinases (Homo sapiens, UniProt P42685) (P42685 whole entry): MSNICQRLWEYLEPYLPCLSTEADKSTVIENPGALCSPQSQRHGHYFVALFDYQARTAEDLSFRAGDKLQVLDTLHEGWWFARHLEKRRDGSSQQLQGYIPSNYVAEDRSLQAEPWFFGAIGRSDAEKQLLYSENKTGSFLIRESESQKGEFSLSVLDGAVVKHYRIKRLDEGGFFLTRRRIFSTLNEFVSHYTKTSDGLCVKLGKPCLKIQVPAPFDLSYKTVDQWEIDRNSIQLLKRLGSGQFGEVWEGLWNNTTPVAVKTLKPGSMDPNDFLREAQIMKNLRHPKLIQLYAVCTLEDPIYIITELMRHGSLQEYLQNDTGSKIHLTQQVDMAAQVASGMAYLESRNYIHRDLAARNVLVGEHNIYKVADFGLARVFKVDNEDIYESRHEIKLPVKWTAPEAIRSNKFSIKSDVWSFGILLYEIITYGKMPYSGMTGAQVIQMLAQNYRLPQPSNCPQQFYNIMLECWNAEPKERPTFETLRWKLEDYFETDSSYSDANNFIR

[8] = molecular target: kinases (Homo sapiens, UniProt P53779)
Chain of kinases (Homo sapiens, UniProt P53779) (P53779 whole entry): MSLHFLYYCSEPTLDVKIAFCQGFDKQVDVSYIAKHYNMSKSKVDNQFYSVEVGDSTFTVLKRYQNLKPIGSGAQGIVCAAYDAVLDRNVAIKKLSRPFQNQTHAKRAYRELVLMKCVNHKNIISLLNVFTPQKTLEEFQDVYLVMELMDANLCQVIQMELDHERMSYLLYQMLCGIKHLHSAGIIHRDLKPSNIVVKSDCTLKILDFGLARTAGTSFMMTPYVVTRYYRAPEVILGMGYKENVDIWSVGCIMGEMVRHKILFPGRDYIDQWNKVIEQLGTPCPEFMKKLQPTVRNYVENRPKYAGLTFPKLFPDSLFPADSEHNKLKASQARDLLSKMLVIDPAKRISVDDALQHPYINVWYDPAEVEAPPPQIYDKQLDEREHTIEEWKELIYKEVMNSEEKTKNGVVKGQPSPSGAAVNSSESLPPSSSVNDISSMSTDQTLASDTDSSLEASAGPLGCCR

[9] = molecular target: kinases (Homo sapiens, UniProt P78527); conditions: DNA-PK FRET-Z-Lyte SP; Test Conc(μM):ATP Conc(μM) 1:25
[10] = molecular target: kinases (Homo sapiens, UniProt Q00536); conditions: CDK16(PCTK1)/cyclinY Lantha SP; Test Conc(μM) 1
[11] = molecular target: kinases (Homo sapiens, UniProt Q00537); conditions: CDK17/cyclin Y FRET-Z-Lyte SP; Test Conc(μM):ATP Conc(μM) 1:50
[12] = molecular target: kinases (Homo sapiens, UniProt Q13163); conditions: MAP2K5 (MEK5) FRET-Lantha SP; Test Conc(μM) 1
Chain of kinases (Homo sapiens, UniProt Q13163) (Q13163 whole entry): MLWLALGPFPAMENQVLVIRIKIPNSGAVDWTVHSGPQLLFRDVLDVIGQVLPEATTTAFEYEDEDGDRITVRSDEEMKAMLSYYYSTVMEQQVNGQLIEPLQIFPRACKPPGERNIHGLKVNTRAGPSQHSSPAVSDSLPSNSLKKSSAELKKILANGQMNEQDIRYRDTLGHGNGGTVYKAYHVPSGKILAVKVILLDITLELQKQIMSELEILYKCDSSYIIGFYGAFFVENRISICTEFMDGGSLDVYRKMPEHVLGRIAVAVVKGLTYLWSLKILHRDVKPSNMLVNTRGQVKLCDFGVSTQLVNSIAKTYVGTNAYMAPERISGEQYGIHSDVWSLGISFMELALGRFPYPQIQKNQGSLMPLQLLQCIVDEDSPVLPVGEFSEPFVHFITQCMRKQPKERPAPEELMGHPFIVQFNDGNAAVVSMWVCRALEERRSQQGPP

[13] = molecular target: kinases (Homo sapiens, UniProt Q13705); conditions: ACVR2B FRET-Lantha SP; Test Conc(μM) 1
[14] = molecular target: kinases (Homo sapiens, UniProt Q13882); conditions: PTK6 (Brk) *Mn* FRET-Z-Lyte SP; Test Conc(μM):ATP Conc(μM) 1:75
Chain of kinases (Homo sapiens, UniProt Q13882) (Q13882 whole entry): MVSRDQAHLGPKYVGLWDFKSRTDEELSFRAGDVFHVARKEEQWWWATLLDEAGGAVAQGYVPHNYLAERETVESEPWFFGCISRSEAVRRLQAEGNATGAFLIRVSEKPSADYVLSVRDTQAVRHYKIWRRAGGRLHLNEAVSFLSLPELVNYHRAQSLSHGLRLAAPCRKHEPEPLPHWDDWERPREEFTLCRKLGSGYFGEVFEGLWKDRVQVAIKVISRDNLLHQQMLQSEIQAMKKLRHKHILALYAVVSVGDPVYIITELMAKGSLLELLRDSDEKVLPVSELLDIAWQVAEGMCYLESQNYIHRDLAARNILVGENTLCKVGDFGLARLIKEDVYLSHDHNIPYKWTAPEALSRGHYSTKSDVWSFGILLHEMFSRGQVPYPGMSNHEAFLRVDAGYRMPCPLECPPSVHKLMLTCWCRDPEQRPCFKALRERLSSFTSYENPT

[15] = molecular target: kinases (Homo sapiens, UniProt Q14004); conditions: Test Conc(μM) 1
[16] = molecular target: kinases (Homo sapiens, UniProt Q14680); conditions: MELK FRET-Z-Lyte SP; Test Conc(μM):ATP Conc(μM) 1:25
[17] = molecular target: kinases (Homo sapiens, UniProt Q15375); conditions: EPHA7 FRET-Lantha SP; Test Conc(μM) 1
[18] = molecular target: kinases (Homo sapiens, UniProt Q15759); conditions: MAPK11 (p38 beta) Z-Lyte SP; Test Conc(μM):ATP Conc(μM) 1:50
Chain of kinases (Homo sapiens, UniProt Q15759) (Q15759 whole entry): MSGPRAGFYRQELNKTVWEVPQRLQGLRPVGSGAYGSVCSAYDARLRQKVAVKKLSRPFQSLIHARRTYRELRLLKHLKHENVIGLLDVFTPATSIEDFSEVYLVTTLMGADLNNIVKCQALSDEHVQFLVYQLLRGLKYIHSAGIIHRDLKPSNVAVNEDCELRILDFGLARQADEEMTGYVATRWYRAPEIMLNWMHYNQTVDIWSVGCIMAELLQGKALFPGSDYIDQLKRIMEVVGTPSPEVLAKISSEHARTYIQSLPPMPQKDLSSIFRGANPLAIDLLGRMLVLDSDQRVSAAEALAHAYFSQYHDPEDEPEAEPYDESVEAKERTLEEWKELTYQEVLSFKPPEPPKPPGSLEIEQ

[19] = molecular target: kinases (Homo sapiens, UniProt Q16513); conditions: PKN2 (PRK2) FRET-lantha SP; Test Conc(μM) 1
Chain of kinases (Homo sapiens, UniProt Q16513) (Q16513 whole entry): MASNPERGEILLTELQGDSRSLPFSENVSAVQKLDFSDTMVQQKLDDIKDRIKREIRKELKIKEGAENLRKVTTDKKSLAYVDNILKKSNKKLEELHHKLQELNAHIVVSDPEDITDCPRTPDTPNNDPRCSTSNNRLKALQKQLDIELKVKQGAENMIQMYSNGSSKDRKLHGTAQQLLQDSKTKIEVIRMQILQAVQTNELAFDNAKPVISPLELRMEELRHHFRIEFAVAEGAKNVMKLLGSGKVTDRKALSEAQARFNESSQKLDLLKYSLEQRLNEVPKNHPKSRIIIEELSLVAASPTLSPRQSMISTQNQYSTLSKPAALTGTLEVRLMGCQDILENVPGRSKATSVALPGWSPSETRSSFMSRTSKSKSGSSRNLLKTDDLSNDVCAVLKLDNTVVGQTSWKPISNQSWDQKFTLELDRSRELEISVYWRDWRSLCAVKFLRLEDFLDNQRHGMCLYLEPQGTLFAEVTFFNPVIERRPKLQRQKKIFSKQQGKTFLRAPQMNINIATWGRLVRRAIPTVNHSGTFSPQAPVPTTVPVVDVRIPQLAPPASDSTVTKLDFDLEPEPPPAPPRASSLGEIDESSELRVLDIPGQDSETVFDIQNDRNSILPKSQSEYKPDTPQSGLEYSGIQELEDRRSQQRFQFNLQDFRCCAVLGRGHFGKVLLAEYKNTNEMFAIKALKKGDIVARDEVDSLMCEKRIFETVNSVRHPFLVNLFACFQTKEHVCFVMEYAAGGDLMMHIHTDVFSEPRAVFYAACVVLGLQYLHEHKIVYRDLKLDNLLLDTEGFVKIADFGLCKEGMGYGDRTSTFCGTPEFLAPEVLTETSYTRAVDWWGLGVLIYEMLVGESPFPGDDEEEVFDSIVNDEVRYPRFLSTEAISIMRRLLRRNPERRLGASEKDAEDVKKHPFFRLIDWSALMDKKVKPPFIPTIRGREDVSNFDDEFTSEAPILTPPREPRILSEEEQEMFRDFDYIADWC

[20] = molecular target: kinases (Homo sapiens, UniProt Q16566); conditions: CAMK4 (CaMKIV) FRET-Z-Lyte SP; Test Conc(μM):ATP Conc(μM) 1:25
Chain of kinases (Homo sapiens, UniProt Q16566) (Q16566 whole entry): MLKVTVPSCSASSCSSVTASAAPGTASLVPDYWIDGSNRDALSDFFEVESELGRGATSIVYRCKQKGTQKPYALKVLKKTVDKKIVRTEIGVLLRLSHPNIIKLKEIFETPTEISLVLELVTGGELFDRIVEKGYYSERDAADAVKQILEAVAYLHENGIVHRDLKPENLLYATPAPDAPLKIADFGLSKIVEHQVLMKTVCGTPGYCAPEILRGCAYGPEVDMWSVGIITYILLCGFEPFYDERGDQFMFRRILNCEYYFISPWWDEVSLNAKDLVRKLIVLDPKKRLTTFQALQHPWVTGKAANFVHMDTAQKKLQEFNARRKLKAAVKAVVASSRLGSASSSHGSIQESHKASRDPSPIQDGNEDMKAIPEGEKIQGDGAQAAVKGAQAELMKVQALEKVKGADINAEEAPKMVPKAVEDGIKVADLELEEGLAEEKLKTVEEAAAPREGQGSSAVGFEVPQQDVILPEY

[21] = molecular target: kinases (Homo sapiens, UniProt Q5TCX8); conditions: MLK4 FRET-Lantha SP; Test Conc(μM) 1
[22] = molecular target: kinases (Homo sapiens, UniProt Q5VT25); conditions: CDC42 BPA (MRCKA) Z-Lyte SP; Test Conc(μM):ATP Conc(μM) 1:5
[23] = molecular target: kinases (Homo sapiens, UniProt Q8IW41); conditions: MAPKAPK5 (PRAK) FRET-Z-Lyte SP; Test Conc(μM):ATP Conc(μM) 1:10
[24] = molecular target: kinases (Homo sapiens, UniProt Q9HBY8); conditions: SGK2 FRET-Z-Lyte SP; Test Conc(μM):ATP Conc(μM) 1:50
Chain of kinases (Homo sapiens, UniProt Q9HBY8) (Q9HBY8 whole entry): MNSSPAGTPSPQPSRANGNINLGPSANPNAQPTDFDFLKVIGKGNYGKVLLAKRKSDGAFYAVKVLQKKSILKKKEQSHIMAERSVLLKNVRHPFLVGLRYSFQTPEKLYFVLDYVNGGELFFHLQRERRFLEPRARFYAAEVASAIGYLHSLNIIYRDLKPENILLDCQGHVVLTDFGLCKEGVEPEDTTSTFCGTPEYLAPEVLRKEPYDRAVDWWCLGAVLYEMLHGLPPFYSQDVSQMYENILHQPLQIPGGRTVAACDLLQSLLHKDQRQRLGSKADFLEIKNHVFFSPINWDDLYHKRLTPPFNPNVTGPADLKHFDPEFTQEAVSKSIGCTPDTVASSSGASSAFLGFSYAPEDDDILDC

[25] = molecular target: kinases (Homo sapiens, UniProt Q9NQU5); conditions: PAK6 FRET-Z-Lyte SP; Test Conc(μM):ATP Conc(μM) 1:10
[26] = molecular target: kinases (Homo sapiens, UniProt Q9NYL2); conditions: ZAK FRET-Lantha SP; Test Conc(μM) 1
[27] = molecular target: kinases (Homo sapiens, UniProt Q9UQB9); conditions: AURKC (Aurora C) Z-Lyte SP; Test Conc(μM):ATP Conc(μM) 1:25
Chain of kinases (Homo sapiens, UniProt Q9UQB9) (Q9UQB9 whole entry): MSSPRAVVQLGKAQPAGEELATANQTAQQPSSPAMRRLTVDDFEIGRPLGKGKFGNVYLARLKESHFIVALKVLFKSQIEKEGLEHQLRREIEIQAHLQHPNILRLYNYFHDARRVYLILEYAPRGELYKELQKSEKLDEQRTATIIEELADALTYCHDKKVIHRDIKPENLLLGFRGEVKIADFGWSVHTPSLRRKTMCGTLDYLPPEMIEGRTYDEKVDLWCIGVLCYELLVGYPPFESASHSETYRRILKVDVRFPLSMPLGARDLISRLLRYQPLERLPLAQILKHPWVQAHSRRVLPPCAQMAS

[28] = molecular target: kinases (Homo sapiens, UniProt Q9Y5S2); conditions: CDC42 BPB (MRCKB) Z-Lyte SP; Test Conc(μM):ATP Conc(μM) 1:5
[29] = MAPK10 (JNK3) FRET-Lantha SP, Test Conc(μM) 1
[30] = MAPK10 (JNK3)Cascade Z-Lyte SP, Test Conc(μM):ATP Conc(μM) 1:100

SMILES	Mean Inhib (%) [1]	Mean Inhib (%) [3]	Mean Inhib (%) [4]	Mean Inhib (%) [5]	Mean Inhib (%) [6]	Mean Inhib (%) [7]	Mean Inhib (%) [8, 29]	Mean Inhib (%) [8, 30]	Mean Inhib (%) [9]	Mean Inhib (%) [10]	Mean Inhib (%) [11]	Mean Inhib (%) [12]	Mean Inhib (%) [13]	Mean Inhib (%) [14]	Mean Inhib (%) [16]	Mean Inhib (%) [17]	Mean Inhib (%) [18]	Mean Inhib (%) [19]	Mean Inhib (%) [20]	Mean Inhib (%) [21]	further results
Cc1ccc(NC(=O)c2ccnc(N3CCOCC3)c2)cc1Nc1ccnc(N2CC(C)OC(C)C2)n1 (stereo not shown) [compound 3]	1.7%	0.4%	6.3%	9.3%	5.1%	5.7%	−0.2%	10.6%	13.7%	3.4%	0.9%	−1.6%	−2.1%	3.5%	3.6%	6.5%	47.6%	−2.6%	−5.4%	−1.5%	Mean Inhib (%) ([2]; PIP5K1B FRET-Adapta SP): 4.5%; Mean Inhib (%) ([15]; CDK13 Cyclin K FRET-Lantha SP): 5.4%; Mean Inhib (%) [22]: −2.0%; Mean Inhib (%) [23]: −1.3%; Mean Inhib (%) [24]: 1.2%; Mean Inhib (%) [25]: 15.9%; Mean Inhib (%) [26]: 3.1%; Mean Inhib (%) [27]: 9.3%; Mean Inhib (%) [28]: −7.0%
Cc1cc(Oc2ccnc(Nc3ccc(S(N)(=O)=O)cc3)c2)c(-c2ccccn2)nc1C [compound 65]	8.7%	−1.2%	49.5%	0.8%	1.1%	60.1%	5.5%	1.1%	13.9%	0.2%	9.6%	3.4%	95.6%	32.3%	6.0%	10.4%	21.2%	5.1%	−1.8%	1.9%	PIP5K1B FRET-Adapta SP Mean Mean Inhib (%) ([2]; PIP5K1B): 2.1%; CDK13 Cyclin K FRET-Lantha SP Mean Mean Inhib (%) ([15]; CDK13 Cyclin K): 4.1%; Mean Inhib (%) [22]: −2.0%; Mean Inhib (%) [23]: 1.9%; Mean Inhib (%) [24]: −1.3%; Mean Inhib (%) [25]: 16.2%; Mean Inhib (%) [26]: 78.3%; Mean Inhib (%) [27]: 4.2%; Mean Inhib (%) [28]: −5.0%
